In PubChem BioAssay (NCI) one finds TGI and GI50 data, which are given here for eight molecules.

What all share (experiment): NCI-60 cell line screen, 48 h
Assay [1] has as its system COLO 205 colon.
In assay [2] the test system is CCRF-CEM leukemia.
The test system of assay [3] is ACHN renal.
The test system of assay [4] is HS 578T breast.
The subject of assay [5] is EKVX NSCLC.
Assay [6] deals with UO-31 renal.
Assay [7] deals with TK-10 renal.
Assay [8] relates to NCI-H23 lung.
Assay [9] deals with T-47D breast.
Assay [10] concerns SK-OV-3 ovarian.

Several values for one entry are separate records, joined by “and”; a condition that tells them apart may be missing. Identical values can stand only once.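 These data come from cells grown in 96-well plates and exposed to compound for 48 hours at five concentrations. At the GI50, growth is halved. TGI: concentration producing complete growth inhibition.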 Bounds are passed on as bounds.

For the molecule `C/C(=N\NC(=O)c1ccccc1O)c1cccc(/C(C)=N/NC(=O)c2ccccc2O)n1`, the TGI in [1] was more than 100 µM; in assay [2], 48.8 µM; in assay [3], 50.5 µM and > 62.9 µM; in assay [4] it was more than 100 µM; in [5] it was more than 100 µM; in assay [6], 52.5 µM and > 57.4 µM. Besides, the TGI is more than 80.6 µM in assay [7]; 63.8 µM and > 100 µM in assay [8]; more than 100 µM in assay [9]; 36.3 µM and > 100 µM in assay [10]. In addition, the GI50 in [2] was 0.693 µM; in [3], 0.668 µM; in [4] it was more than 100 µM; in [5], 0.317 µM; in [7] it was 0.614 µM; in assay [8], 16 µM and 1.73 µM. The GI50 was 2.3 µM in assay [9] and 1.31 µM in [10].

For the molecule `O=C1c2ccccc2-c2n[nH]c3cccc1c23`, the GI50 in assay [1] was 23.9 µM; in [4], 21 µM; in assay [5], 7.03 µM; in assay [6], 4.02 µM; in assay [7], 7.44 µM; in [9], 45.1 µM. Besides, the GI50 in [10] is 7.39 µM. Moreover, the TGI in assay [1] is more than 100 µM; in assay [2], more than 100 µM; in assay [3] it was more than 100 µM; in assay [4], more than 100 µM; in assay [5], > 100 µM and 85.1 µM; in [6] it was > 100 µM and 55.9 µM. Further, the TGI was 52 µM and 76.2 µM in assay [7]; 58.1 µM and > 100 µM in assay [8]; more than 100 µM in assay [9]; more than 100 µM in [10].

Take `CO/N=C(/COc1c(-c2ccccc2)oc2ccccc2c1=O)c1ccc(OC)cc1`: the GI50 was more than 100 µM in assay [1]; 60 µM in [2]; more than 100 µM in assay [3]; more than 100 µM in [4]; more than 100 µM in assay [5]; 61.3 µM in assay [6]. In addition, the GI50 in assay [7] was more than 100 µM; in assay [8] it was more than 100 µM; in [9] it was 26.9 µM; in assay [10], more than 100 µM. In addition, the TGI in assay [1], in assay [2], in assay [3], in assay [4], in assay [5] and in [6] was more than 100 µM each time. For the same molecule, the TGI in assay [7], in [8], in assay [9] and in assay [10] was more than 100 µM each time.

Take `N#CSCc1c(Cl)cccc1Cl`: the GI50 was 2.34 µM in [1]; 0.323 µM in [2]; 5.14 µM in [3]; 3.04 µM in assay [4]; 3.94 µM in [5]; 4.41 µM in assay [6]. Besides, the GI50 in [7] was 4.51 µM; in assay [8], 5.41 µM; in assay [9], 13.3 µM; in assay [10] it was 34 µM. Also, the TGI in assay [1] was 4.97 µM; in assay [2], more than 43.8 µM; in [3], more than 100 µM; in [4], 8.26 µM; in assay [5], more than 27.4 µM; in [6], 27.6 µM. For the same molecule, the TGI is more than 29.2 µM in [7], more than 100 µM in assay [8], more than 96.1 µM in assay [9] and more than 100 µM in assay [10].

With `CC1(C)CC(=O)c2c(ccc(C(=O)C[C@H](N)CO)c2N)O1`, the GI50 in [1] is 4.92 µM and 2.07 µM; in assay [3], 4.49 µM and 0.962 µM; in assay [4], more than 33.3 µM; in assay [5], more than 33.3 µM; in assay [6], 1.73 µM and 0.409 µM; in assay [7] it was > 17.5 µM and 5.99 µM. The GI50 in assay [8] is 6.42 µM and 0.733 µM; in assay [9] it was 5.94 µM and 3.52 µM; in assay [10] it was > 17.5 µM and 12.3 µM. Further, the TGI in [1] is 17.5 µM and > 33.3 µM; in assay [2], 17.5 µM and > 33.3 µM; in assay [3], 17.5 µM and > 33.3 µM; in assay [4], more than 33.3 µM; in assay [5], more than 33.3 µM; in [6], 17.5 µM and > 33.3 µM. In addition, the TGI is > 17.5 µM and 28.8 µM in [7]; 17.5 µM and > 33.3 µM in assay [8]; 17.5 µM and > 33.3 µM in assay [9]; more than 33.3 µM in [10].

As for `CCCCCCCCCCCC[n+]1ccccc1`, the GI50 was 0.868 µM in assay [1]; 1.34 µM in assay [2]; 2.09 µM in assay [3]; 1.87 µM in assay [4]; 0.936 µM in [5]; 1.72 µM in assay [6]. The GI50 is 0.941 µM in assay [7], 0.488 µM in [8], 0.936 µM in [9] and 1.73 µM in assay [10]. For the same molecule, the TGI in [1] is 2.66 µM; in [2] it was 8.55 µM; in assay [3], 14.2 µM; in assay [4], 5.87 µM; in [5], 9.17 µM; in assay [6], 11 µM. For the same molecule, the TGI in assay [7] was 2.67 µM; in [8], 5.67 µM; in assay [9], 11.2 µM; in assay [10], 6.35 µM.

Consider `CC1(O)CC2(O)C=CC3=C(C(=O)c4cccc(O)c4C3=O)C2(O)C(=O)C1O` (centres undefined), for which the TGI was 0.436 µM in assay [1]; 2.87 µM in [2]; 3.1 µM in [3]; 10.7 µM in assay [4]; 5.99 µM in [5]; 4 µM in assay [6]. Moreover, the TGI in assay [7] was 3.12 µM; in [8], 10.7 µM; in assay [9] it was 3.51 µM; in [10], 28.5 µM.

In the case of `CN1CCN(Cc2ccc(NC(=O)c3nc4ccc5[nH]ncc5c4c4c3CCC4)cc2C(F)(F)F)CC1`, the GI50 was 7.27 µM in assay [1]; 1.25 µM in [2]; 0.861 µM in assay [3]; 0.833 µM in [4]; 1.26 µM in [5]; 0.728 µM in [6]. In addition, the GI50 in assay [7] was 0.884 µM; in [8], 1.07 µM; in assay [9], 1.07 µM; in [10], 8.28 µM. Further, the TGI was 14.7 µM in [1]; 3.64 µM in assay [2]; 1.55 µM in assay [3]; 1.65 µM in assay [4]; 4.84 µM in assay [5]; 1.38 µM in assay [6]. The TGI in assay [7] was determined as 1.65 µM; in assay [8] it was 3.22 µM; in assay [9] it was 2.84 µM; in [10], 15.5 µM.
